Experimental data published in ChEMBL document CHEMBL1201862, “PubChem BioAssay data set” (2004).
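Five concentrations, 48 hours, 96-well plates. GI50 marks 50% less growth.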 Active and inactive are the calls of the source. Cut-off read from the data, not from the text of the source: active = GI50 up to about 1.1 µM and inactive = higher.

Tests used:
Experiment in all cases: inhibition of tumour cell growth, NCI panel, 48 h
M19-MEL = system: M19-MEL
KM-20L2 = system: KM-20L2
XF498 = system: XF498
DMS-114 = system: DMS-114
T47D = system: T47D

SMILES | GI50 (M19-MEL) | GI50 (KM-20L2) | GI50 (XF498) | GI50 (DMS-114) | GI50 (T47D)
O=C(NC(Cc1ccc(Br)cc1)C(=O)O)c1ccc(I)cc1 (stereo not given) | > 100 µM (inactive) | > 100 µM (inactive) | > 100 µM (inactive) | 70.5 µM (inactive) | 
COc1cc(C2S/C(=C/c3ccccc3)C(=O)N2c2ccc(NC(C)=O)cc2)cc(OC)c1OC (stereo not given) |  |  |  |  | 11.6 µM (inactive)
